Experimental data as given in patent US8410178B2, “CIS 3,4-dihydroxy-2-(3-methylbutanoyl)-5-(3-methylbutyl)-4-(4-methylpentanoyl)cyclopent-2-en-1-derivatives, substantially enantiomerically pure compositions and methods” (KinDex Therapeutics, LLC, priority 2010, dated 2013).
pIC50, pKi: −log10 of the molar value.

Legend:
PPARα = molecular target: T1, PPARα (Homo sapiens, UniProt Q07869); assay: PPARα luciferase reporter assay; format: cell-based; details: reporter cells, 20 hours
T1 sequence (Q07869 1-468): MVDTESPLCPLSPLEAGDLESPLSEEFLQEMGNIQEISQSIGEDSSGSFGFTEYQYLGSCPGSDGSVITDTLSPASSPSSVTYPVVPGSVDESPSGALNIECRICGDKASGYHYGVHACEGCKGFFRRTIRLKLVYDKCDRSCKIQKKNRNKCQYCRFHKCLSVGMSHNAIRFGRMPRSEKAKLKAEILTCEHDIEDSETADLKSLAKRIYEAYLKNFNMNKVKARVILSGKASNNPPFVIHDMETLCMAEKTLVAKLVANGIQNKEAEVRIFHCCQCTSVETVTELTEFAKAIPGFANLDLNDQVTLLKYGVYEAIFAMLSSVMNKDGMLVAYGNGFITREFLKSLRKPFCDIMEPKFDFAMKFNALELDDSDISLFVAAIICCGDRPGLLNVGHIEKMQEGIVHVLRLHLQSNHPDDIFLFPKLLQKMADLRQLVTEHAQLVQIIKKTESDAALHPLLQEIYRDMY
Method: (§1) The functional effect of (+)-KDT501 on PPARα, PPARδ, and PPARγ activity was evaluated using a PPAR reporter assay (INDIGO Biosciences, PA). This assay utilizes non-human mammalian cells engineered to provide constitutive high level expression of PPARα, PPARδ, or PPARγ and containing a luciferase report gene specific to the appropriate PPAR. Following activation by agonist binding, PPAR induces expression of the luciferase reporter gene. Luciferase activity therefore provides a surrogate for measuring PPAR activity in agonist-treated cells.
(§2) Reporter cells were plated on a 96-well plate at 100 μL per well, and 100 μL of (+)-KDT501 at various final concentrations (25, 12.5, 6.25, 3.125, 1.56 and 0.78 μM) was added to each well. […] 0.1% DMSO was also used as a negative control for each assay. Plates are incubated for 20 hours in a humidified incubator at 37° C. and 5% CO2. After incubation, cell medium was discarded and the cells were treated with 100 μL of luciferase detection reagent for 15 minutes. Plates were analyzed using a luminometer (Victor2, Perkin Elmer). Average relative light unit (RLU) and standard deviation were analyzed using GraphPad Prism.

PPARγ = molecular target: T2, PPARγ (Homo sapiens, UniProt P37231); assay: PPARγ luciferase reporter assay; format: cell-based
T2 sequence (P37231 1-505): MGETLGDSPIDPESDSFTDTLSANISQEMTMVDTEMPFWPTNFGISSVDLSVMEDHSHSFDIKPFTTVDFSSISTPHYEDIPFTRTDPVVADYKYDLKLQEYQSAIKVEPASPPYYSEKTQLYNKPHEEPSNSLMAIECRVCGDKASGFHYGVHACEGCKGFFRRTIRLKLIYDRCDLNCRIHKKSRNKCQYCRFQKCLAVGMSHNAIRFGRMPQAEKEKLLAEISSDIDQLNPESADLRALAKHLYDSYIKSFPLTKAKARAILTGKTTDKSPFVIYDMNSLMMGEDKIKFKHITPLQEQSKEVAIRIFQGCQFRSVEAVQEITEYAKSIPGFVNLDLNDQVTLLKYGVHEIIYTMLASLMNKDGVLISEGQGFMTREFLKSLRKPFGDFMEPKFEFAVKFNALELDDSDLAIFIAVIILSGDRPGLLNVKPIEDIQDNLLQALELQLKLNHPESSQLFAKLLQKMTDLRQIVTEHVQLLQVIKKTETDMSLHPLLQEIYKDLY
Method: as §1, §2
The PPAR activity assays were repeated as described above using both (+)-KDT501(12.5, 6.25, 3.125, 1.56, and 0.78 μM) and (−)-KDT501 (25, 12.5, 6.25, 3.125, 1.56, and 0.78 μM).

[1] = molecular target: T3, peroxisome proliferator-activated receptor gamma (PPARγ) (Homo sapiens, UniProt P37231); assay: Competitive binding to PPARγ ([3H]rosiglitazone)
T3 sequence (P37231 1-505): T2 sequence (P37231 1-505)

[2] = system: diet induced obese (DIO) mice; assay: Glucose, insulin, HbA1C and fat mass in high fat diet-induced obesity (DIO) mouse model; format: in vivo
Method: 14 week-old male mice were randomized and divided into seven dosing groups with 16 animals in each group: 1) vehicle only (0.5% methylcellulose (w/v), 0.2% Tween 80 (w/v); negative control), 2) (+)-KDT501 25 mg/kg, 3) (+)-KDT501 50 mg/kg, 4) (+)-KDT501 100 mg/kg, 5) (+)-KDT501 200 mg/kg, 6) metformin 200 mg/kg (positive control), and 7) pioglitazone 30 mg/kg (positive control). Drugs were administered orally twice a day for 30 days.
Animals were weighed at randomization and once per week thereafter, with administration dosages calculated based on the most recent body weight measurements. The mice were maintained on a high fat diet (40% Kcal) (TD95217; prepared by Covance Laboratories, Greenfield, Ind.). Body composition was tested by qNMR on days −5 and 28 after the start of treatment. […]. An oral glucose tolerance test (OGTT) was performed on day 30 after the start of treatment. Mice underwent an overnight fast prior to OGTT, and tail bleeds for glucose and insulin were performed pre-glucose bolus and at 15, 30, 60, 90, and 120 minutes post-glucose bolus. The glucose bolus was 2 g dextrose/kg of body weight. OGTT results were evaluated by area under the curve (AUC) measurements and Dunnett's test.

With `CC(C)CCC(=O)[C@@]1(O)C(O)=C(C(=O)CC(C)C)C(=O)[C@@H]1CCC(C)C.[K]` [(+)-KDT501, (+)-(4S,5R)-3,4-dihydroxy-2-(3-methylbutanoyl)-5-(3-methylbutyl)-4-(4-methylpentanoyl)cyclopent-2-en-1-one potassium salt] the PPARα activity (PPARα) was “little or no effect”, the “Fold difference in PPARγ reporter activity” value (from here on “Fold difference”) (PPARγ; (+)-KDT501 versus (−)-KDT501 at 3.13 μM) was 3.9 and the “Fold difference” value (PPARγ; (+)-KDT501 versus (−)-KDT501 at 6.25 μM) was 6.7. For the same compound, the “Fold difference” value (PPARγ; (+)-KDT501 versus (−)-KDT501 at 12.5 μM) was 6.8, the “Fold difference” value (PPARγ; (+)-KDT501 versus (−)-KDT501 at 25 μM) was 3.2 and the “PPARγ reporter activity (RLU)” value (PPARγ; concentration of test compound 3.13 μM) was 2122 RLU. The “PPARγ reporter activity (RLU)” value (PPARγ; concentration of test compound 6.25 μM) was 6536 RLU, the “PPARγ reporter activity (RLU)” value (PPARγ; concentration of test compound 12.5 μM) was 16451 RLU and the “PPARγ reporter activity (RLU)” value (PPARγ; concentration of test compound 25 μM) was 13419 RLU. For the same compound, the PPARγ activity (PPARγ; reporter cells, 20 hours) was “increased PPARγ activity in a statistically significant manner”, the pIC50 [1] was 5.08 and the pKi [1] was 5.35. The nH ([1]; binding target PPARγ, competitor ligand Rosiglitazone) was 1.1, the “insulin levels from the OGTT” value ([2]; 200 mg/kg orally twice a day, day 30) was “significant decrease” and the “blood glucose levels from the OGTT” value ([2]; 100 or 200 mg/kg orally twice a day, day 30) was “significant decrease”. For the same compound, the fat mass ([2]; 100 or 200 mg/kg orally twice a day, qNMR day 28) was “significant difference in fat mass versus negative control mice” and the HbA1C ([2]; orally twice a day, day 29, dose not specified) was “trend towards HbA1C inhibition”.
